The results in this text go back to patent US20220340875A1, “METHODS OF CULTURING AND/OR EXPANDING STEM CELLS AND/OR LINEAGE COMMITTED PROGENITOR CELLS USING AMIDO COMPOUNDS” (IDEAYA BIOSCIENCES, INC., priority 2018, published 2022).

SMILES strings stand for the structures.

As usually defined, the IC50 is the concentration that inhibits the measured activity by half. Lower therefore signals higher potency.

For the assay, the target named is T1, hAhR (Homo sapiens, UniProt P35869).
T1 construct: Stably integrated DRE-luciferase cell lines were generated by transducing the both cell lines with Cignal XRE luciferase reporter (Qiagen) lentiviral particles; endogenous in cells
T1 sequence (P35869 11-848): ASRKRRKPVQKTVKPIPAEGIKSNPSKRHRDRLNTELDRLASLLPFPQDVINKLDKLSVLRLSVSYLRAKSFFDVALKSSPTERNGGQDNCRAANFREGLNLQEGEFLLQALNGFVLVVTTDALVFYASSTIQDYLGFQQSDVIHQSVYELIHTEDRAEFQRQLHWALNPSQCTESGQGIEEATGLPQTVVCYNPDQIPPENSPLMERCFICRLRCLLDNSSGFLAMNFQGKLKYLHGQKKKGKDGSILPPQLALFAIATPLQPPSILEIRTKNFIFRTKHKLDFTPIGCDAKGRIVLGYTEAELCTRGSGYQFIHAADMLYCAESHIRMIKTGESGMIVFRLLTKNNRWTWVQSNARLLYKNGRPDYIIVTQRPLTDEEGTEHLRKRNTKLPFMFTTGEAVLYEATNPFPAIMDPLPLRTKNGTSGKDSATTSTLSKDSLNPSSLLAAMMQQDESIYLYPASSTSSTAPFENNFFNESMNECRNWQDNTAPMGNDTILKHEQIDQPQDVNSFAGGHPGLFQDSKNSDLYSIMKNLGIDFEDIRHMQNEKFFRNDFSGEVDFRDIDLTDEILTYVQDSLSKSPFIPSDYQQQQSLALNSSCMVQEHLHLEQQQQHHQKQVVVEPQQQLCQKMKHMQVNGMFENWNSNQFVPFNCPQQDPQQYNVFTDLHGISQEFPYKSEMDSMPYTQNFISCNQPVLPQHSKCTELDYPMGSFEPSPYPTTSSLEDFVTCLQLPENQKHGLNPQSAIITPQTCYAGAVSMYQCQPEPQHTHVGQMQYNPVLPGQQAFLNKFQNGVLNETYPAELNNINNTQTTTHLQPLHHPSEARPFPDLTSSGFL
In words: AhR DRE-luciferase reporter transcriptional assay, antagonist mode (TCDD-induced). The assay is classed as cell-based. As to conditions: HEPG2 DRE-Luc cells, 3 nM TCDD, 24 hour incubation, relative IC50. The gist of the method:
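HepG2 cells carrying a stably integrated DRE-luciferase reporter, in OptiMEM with 0.5% FBS; semi-log compound doses added with 3 nM TCDD, 24 h incubation, firefly luciferase read-out. Percent maximal activity normalised between vehicle ± TCDD; relative IC50 taken as half-reduction between curve plateaus.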
Molecule `Cc1cc(-c2ncc3nc(C(F)(F)F)cc(C)c3n2)ccc1N(C)C(=O)c1cc(C(N)=O)nn1CCO` [Example 200, 1-(2-hydroxyethyl)-N5-methyl-N5-(2-methyl-4-(8-methyl-6-(trifluoromethyl)pyrido[3,2-d]pyrimidin-2-yl)phenyl)-1H-pyrazole-3,5-dicarboxamide] returned an IC50 below 200 nM.
In turn, `Cc1cc(-c2ncc3cc(F)cc(C)c3n2)ccc1NC(=O)c1ccnn1C` [Example 109, N-(4-(6-fluoro-8-methylquinazolin-2-yl)-2-methylphenyl)-1-methyl-1H-pyrazole-5-carboxamide] displayed an IC50 below 200 nM.
With `Cc1cc(-c2ccc3ccccc3n2)ccc1NC(=O)c1ccnn1C` [Example 070, 1-methyl-N-(2-methyl-4-(quinolin-2-yl)phenyl)-1H-pyrazole-5-carboxamide], the IC50 lay in the range of 500 to 1000 nM.
`Cc1cc(-c2ncc3ccn(CC(F)(F)F)c3n2)ccc1NC(=O)c1ccnn1C` [Example 091, 1-Methyl-N-(2-methyl-4-(7-(2,2,2-trifluoroethyl)-7H-pyrrolo[2,3-d]pyrimidin-2-yl)phenyl)-1H-pyrazole-5-carboxamide] gave an IC50 of 200 to 500 nM.
For `Cc1cc(-c2cc(C)c3ccccc3n2)ccc1NC(=O)c1ccnn1C` [Example 016, 1-Methyl-N-(2-methyl-4-(4-methylquinolin-2-yl)phenyl)-1H-pyrazole-5-carboxamide] the value was 500 to 1000 nM.
The molecule `Cc1cc(C(F)(F)F)nc2cnc(-c3ccc(NC(=O)c4ccnn4C)c(F)c3)nc12` [Example 163, N-[2-fluoro-4-[8-methyl-6-(trifluoromethyl)pyrido[3,2-d]pyrimidin-2-yl]phenyl]-1-methyl-1H-pyrazole-5-carboxamide] yielded an IC50 below 200 nM.
For `Cc1cc(-c2ccc3cc(F)ccc3n2)ccc1NC(=O)c1ccncc1` [Example 028, N-(4-(6-fluoroquinolin-2-yl)-2-methylphenyl)isonicotinamide] the value was 500 to 1000 nM; for `Cc1cc(-c2ncc3cc(C(F)(F)F)ccc3n2)ccc1N(C)C(=O)c1c(C)cnn1C` [Example 217, N,1,4-trimethyl-N-(2-methyl-4-(6-(trifluoromethyl)quinazolin-2-yl)phenyl)-1H-pyrazole-5-carboxamide], below 200 nM; for `Cc1cc(-c2ccc3cc([N+](=O)[O-])ccc3n2)ccc1NC(=O)c1ccnn1C` [Example 076, 1-methyl-N-(2-methyl-4-(6-nitroquinolin-2-yl)phenyl)-1H-pyrazole-5-carboxamide], below 200 nM.
Next, `Cc1cc(-c2ncc3nc(C(F)(F)F)cc(C)c3n2)ccc1N(C)C(=O)c1ccnn1CC(C)(C)O` [Example 224, 1-(2-hydroxy-2-methylpropyl)-N-methyl-N-(2-methyl-4-(8-methyl-6-(trifluoromethyl)pyrido[3,2-d]pyrimidin-2-yl)phenyl)-1H-pyrazole-5-carboxamide]: 200 to 500 nM; `Cc1cc(C(=O)N(C)c2ccc(-c3ncc4cc(C(F)(F)F)ccc4n3)cc2C)c(C)cn1` [Example 126, N,2,5-trimethyl-N-(2-methyl-4-(6-(trifluoromethyl)quinazolin-2-yl)phenyl)isonicotinamide]: below 200 nM.
